Laboratory results as given in patent EP1981504B1, “THIADIAZOLE DERIVATIVES FOR THE TREATMENT OF NEURO DEGENERATIVE DISEASES” (NV reMYND, priority 2006, dated 2007).
Converted amounts (≈) assume the structure as drawn.

Tested on: M17-SYNwt cells
Test: α-synuclein cytotoxicity assay (LDH leakage from paraquat-treated α-synuclein over-expressing neuroblastoma cells)
Type: cell-based, human
Settings: paraquat 32 mM, 40 hours, LDH release; for %I: percent inhibition of synuclein cytotoxicity at most effective concentration of test compound, relative to untreated paraquat cells; for EC50: Homo sapiens, Neuroblastoma cell
How it was run: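 M17 neuroblastoma cells over-expressing wild-type α-synuclein were challenged with paraquat, and cytotoxicity was read as LDH release. Protection was expressed as percent reduction of paraquat-induced LDH release relative to untreated paraquat cells and control cells. Actives were retested in 10-point duplicate dose responses.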

Molecule	%I [%]	EC50 (µg/mL) (10 point curves in duplicate)	EC50 (10 point curves in duplicate) [µg/mL]
CC1CN(c2nc(Cc3ccc(F)cc3)ns2)CCN1S(=O)(=O)c1ccccc1 (stereo not shown) [Compound 47, 1-phenylsulfonyl-4-[3-(4-fluorobenzyl)-1,2,4-thiadiazol-5-yl]-2-methylpiperazine]	129		
1-(4-methoxybenzoyl)-4-[3-(4-methylbenzyl)-1,2,4-thiadiazol-5-yl]-2-methylpiperazine [Compound 130]	118	0,25 µg/mL	
O=C(NCCN1CCN(c2nc(Cc3ccc(F)cc3)ns2)CC1)c1ccccc1 [Compound 104, N-{2-[4-[3-(4-fluorobenzyl)-1,2,4-thiadiazol-5-yl]piperazin-1-yl]ethyl}benzamide]	65		3.82 (≈ 8.98 µM)
O=C(Cc1ccc(F)cc1)NCCN1CCN(c2nc(Cc3ccc(F)cc3)ns2)CC1 [Compound 107, 2-(4-fluorophenyl)-N-{2-[4-[3-(4-fluorobenzyl)-1,2,4-thiadiazol-5-yl]piperazin-1-yl]ethyl}acetamide]	80		0.26 (≈ 0.568 µM)
Cc1ccc(C(=O)N2CCCN(c3nc(Cc4ccc(F)cc4)ns3)CC2)cc1 [Compound 190, 1-(4-methylbenzoyl)-4-[3-(4-fluorobenzyt)-1,2,4-thiadiazol-5-yl]-1,4-diazepane]	87		2.77 (≈ 6.75 µM)
CCOc1ccc(NC(=O)N2CCN(c3nc(Cc4ccc(F)cc4)ns3)CC2C)cc1 (stereo not shown) [Compound 14, N-(4-ethoxyphenyl)-4-[3-(4-fluorobenzyl)-1,2,4-thiadiazol-5-yl]-2-methylpiperazine-1-carboxamide]	70		1.73 (≈ 3.8 µM)
CCc1ccc(C(=O)N2CCN(c3nc(Cc4ccc(C)cc4)ns3)CC2C)cc1 (stereo not shown) [Compound 147, 1-(4-ethylbenzoyl)-4-[3-(4-methylbenzyl)-1,2,4-thiadiazol-5-yl]-2-methylpiperazine]	88		0.84 (≈ 2 µM)
O=C(NCCN1CCN(c2nc(Cc3ccc(F)cc3)ns2)CC1)c1cc(Cl)cc(Cl)c1 [Compound 98, 3,5-dichloro-N-{2-[4-[3-(4-fluorobenzyl)-1,2,4-thiadiazol-5-yl]piperazin-1-yl]ethyl}benzamide]	102		1.42 (≈ 2.87 µM)
Cc1ccc(Cc2nsc(N3CCN(S(=O)(=O)c4cc(Cl)ccc4Cl)C(C)C3)n2)cc1 (stereo not shown) [Compound 36, 1-[2,5-dichlorophenylsulfonyl]-4-[3-(4-methylbenzyl)-1,2,4-thiadiazol-5-yl]-2-methylpiperazine]	52		0.1 (≈ 0.201 µM)
CCOc1ccccc1N1CCN(c2nc(Cc3ccc(F)cc3)ns2)CC1 [Compound 186, 1-(2-ethoxyphenyl)-4-[3-(4-fluorobenzyl)-1,2,4-thiadiazol-5-yl]piperazine]	94		2.05 (≈ 5.14 µM)
COc1ccc(S(=O)(=O)N2CCN(c3nc(Cc4ccccc4)ns3)CC2)cc1 [Compound 199, 1-[4-methoxyphenylsulfonyl]-4-[3-benzyl-1,2,4-thiadiazol-5-yl]piperazine]	38		0.0016 (≈ 0.00372 µM)
Cc1ccc(Cc2nsc(N3CCN(S(=O)(=O)c4ccc5ccccc5c4)C(C)C3)n2)cc1 (stereo not shown) [Compound 38, 1-[2-naphtylsulfonyl]-4-[3-(4-methylbenzyl)-1,2,4-thiadiazol-5-yl]-2-methylpiperazine]	78		0.13 (≈ 0.272 µM)
O=C(Nc1cccc(F)c1)N1CCN(c2nc(Cc3ccc(F)cc3)ns2)CC1 [Compound 9, N-(3-fluorophenyl)-4-[3-(4-fluorobenzyl)-1,2,4-thiadiazol-5-yl]piperazine-1-carboxamide]	53		0.52 (≈ 1.25 µM)
CCCCc1ccc(C(=O)N2CCN(c3nc(Cc4ccc(F)cc4)ns3)CC2C)cc1 (stereo not shown) [Compound 120, 1-(4-butylbenzoyl)-4-[3-(4-fluorobenzyl)-1,2,4-thiadiazol-5-yl]-2-methylpiperazine]	120		0.0987 (≈ 0.218 µM)
Cc1ccc(C(=O)N2CCN(c3nc(Cc4ccc(F)cc4)ns3)CC2C)cc1[N+](=O)[O-] (stereo not shown) [Compound 172, 1-(3-nitro-4-methylbenzoyl)-4-[3-(4-fluorobenzyl)-1,2,4-thiadiazol-5-yl]-2-methylpiperazine]	86		
